# Source: US20260373266A1, “PROTEIN DEGRADERS AND USES THEREOF” (KYMERA THERAPEUTICS, INC., priority 2022, published 2026)
# Biological target: T1, DCAF1 WD40 domain (residues 1077-1390) (Homo sapiens, UniProt Q9Y4B6)
# T1 construct: DCAF1 WD40 domain (residues 1077-1390)
# Assay: DCAF1 binding assay by SPR (Biacore 8K+), DCAF1-3 KD
# Settings: 25 °C, read-out: DCAF1-3 SPR (KD)
# T1 sequence (Q9Y4B6 1077-1390): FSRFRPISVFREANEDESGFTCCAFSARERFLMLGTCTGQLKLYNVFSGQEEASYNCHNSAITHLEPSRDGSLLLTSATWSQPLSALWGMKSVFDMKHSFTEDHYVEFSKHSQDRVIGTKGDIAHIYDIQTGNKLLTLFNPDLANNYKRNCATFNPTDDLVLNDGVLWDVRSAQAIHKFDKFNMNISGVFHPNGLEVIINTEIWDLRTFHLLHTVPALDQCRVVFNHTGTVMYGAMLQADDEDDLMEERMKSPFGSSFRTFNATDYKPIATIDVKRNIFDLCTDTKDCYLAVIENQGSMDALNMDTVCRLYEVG
row,Compound,Kd
1,C[C@@]1(Nc2cc(N3CCOCC3)ccn2)CCCN(c2cccc(F)c2)C1 [I-500],> 200 µM
2,NC(=O)C[C@H](NC(=O)c1cn[nH]c1C1CCOCC1)c1ccccc1 [I-501],10 to 100 µM
3,O=C1C(Nc2cc(N3CCOCC3)ccn2)CCCN1c1cccc(F)c1 (centres unmarked) [I-502],> 200 µM
4,Fc1cccc(N2CCC[C@@H](Nc3cc(N4CCCCC4)ccn3)C2)c1 [I-503],< 10 µM
5,COc1ncccc1-c1[nH]ncc1C(=O)N[C@@H](CC(N)=O)c1cccc(Cl)c1 [I-504],> 200 µM
6,Cc1ccc(F)c(-c2[nH]ncc2C(=O)N[C@@H](CC(N)=O)c2cccc(Cl)c2)c1 [I-505],< 10 µM
7,Cc1ccc(-c2[nH]ncc2C(=O)N[C@@H](CC(N)=O)c2cccc(Cl)c2)c(F)c1 [I-506],< 10 µM
8,c1cc(N2CCOCC2)cc(N[C@@H]2CCCN(c3ccc(C4CC4)cc3)C2)n1 [I-507],> 200 µM
9,c1cc(N2CCOCC2)cc(N[C@@H]2CCCN(c3ccc4c(c3)CCC4)C2)n1 [I-508],100 to 200 µM
10,Cc1ccc(N2CCC[C@@H](Nc3cc(N4CCOCC4)ccn3)C2)cc1 [I-509],10 to 100 µM
11,Cc1cccc(N2CCC[C@@H](Nc3cc(N4CCOCC4)ccn3)C2)c1 [I-510],100 to 200 µM
12,COCCc1ccc(-c2[nH]ncc2C(=O)N[C@@H](CC(N)=O)c2cccc(Cl)c2)c(F)c1 [I-511],< 10 µM
13,CO[C@@H]1C[C@@H](Nc2cc(N3CCOCC3)ccn2)CN(c2cccc(F)c2)C1 [I-512],> 200 µM
14,NC(=O)C[C@H](NC(=O)c1c[nH]nc1-c1cc(F)ccc1F)c1cccc(Cl)c1 [I-513],< 10 µM
15,Cc1cccc(-c2[nH]ncc2C(=O)N[C@@H](CC(N)=O)c2cccc(Cl)c2)c1F [I-515],10 to 100 µM
16,Cc1c(N2CCOCC2)ccnc1N[C@@H]1CCCN(c2cccc(F)c2)C1 [I-516],10 to 100 µM
17,C=CC(=O)N1C[C@H](c2ccc(Br)cc2)[C@@H]1C(=O)Nc1cccc2cccnc12 [I-517],> 200 µM
18,CCC(=O)N1C[C@H](c2ccc(Br)cc2)[C@@H]1C(=O)Nc1cccc2cccnc12 [I-518],> 200 µM
19,C=CC(=O)NC1CCN(c2ccnc(N[C@@H]3CCCN(c4cccc(F)c4)C3)c2)CC1 [I-519],10 to 100 µM
20,C[n+]1ccc(N2CCOCC2)cc1N[C@@H]1C[C@@H](O)CN(c2cccc(F)c2)C1 [I-520],> 200 µM
21,NC(=O)Cc1ccc(F)c(-c2[nH]ncc2C(=O)N[C@@H](CC(N)=O)c2cccc(Cl)c2)c1 [I-521],10 to 100 µM
22,NC(=O)CCc1ccc(F)c(-c2[nH]ncc2C(=O)N[C@@H](CC(N)=O)c2cccc(Cl)c2)c1 [I-522],10 to 100 µM

row,Compound,Kd
1,NC(=O)C[C@H](NC(=O)c1c[nH]nc1-c1cc(C(=O)O)ccc1F)c1cccc(Cl)c1 [I-523],10 to 100 µM
2,COCCC(=O)c1[nH]cc(C(=O)N[C@@H](CC(N)=O)c2cccc(Cl)c2)c1-c1ccccc1F [I-524],< 10 µM
3,CC(C)c1cccc(-c2[nH]ncc2C(=O)N[C@@H](CC(N)=O)c2cccc(Cl)c2)c1 [I-525],10 to 100 µM
4,c1cc(C2CC2)cc(N2CCC[C@@H](Nc3cc(N4CCOCC4)ccn3)C2)c1 [I-526],10 to 100 µM
5,Cc1ncc(N2CCOCC2)cc1N[C@@H]1CCCN(c2cccc(F)c2)C1 [I-527],> 200 µM
6,Fc1cccc(N2CCC[C@@H](Nc3cncc(N4CCCCC4)c3)C2)c1 [I-528],> 200 µM
7,NC(=O)C[C@@H](NC(=O)c1cn[nH]c1-c1ncccc1F)c1cccc(Cl)c1 [I-529],10 to 100 µM
8,CS(=O)(=O)CCc1ccc(F)c(-c2[nH]ncc2C(=O)N[C@H](CC(N)=O)c2cccc(Cl)c2)c1 [I-531],> 200 µM
9,CS(=O)(=O)Cc1ccc(F)c(-c2[nH]ncc2C(=O)N[C@H](CC(N)=O)c2cccc(Cl)c2)c1 [I-532],> 200 µM
10,O=c1[nH]cc(N2CCOCC2)cc1N[C@@H]1CCCN(c2cccc(F)c2)C1 [I-533],< 10 µM
11,c1cc(N2CCOCC2)cc(N[C@@H]2CCCN(c3cnn[nH]3)C2)n1 [I-534],> 200 µM
12,C=CC(=O)N1CCC(c2[nH]ncc2C(=O)N[C@H](CC(N)=O)c2cccc(Cl)c2)CC1 [I-535],100 to 200 µM
13,C=CC(=O)Nc1ccc(-c2[nH]ncc2C(=O)N[C@H](CC(N)=O)c2cccc(Cl)c2)cc1 [I-536],> 200 µM
14,C=CC(=O)NC1CCC(c2[nH]ncc2C(=O)N[C@H](CC(N)=O)c2cccc(Cl)c2)CC1 (some centres unmarked) [I-537],10 to 100 µM
15,Nc1cc(N[C@@H]2CCCN(c3cccc(F)c3)C2)cc(N2CCOCC2)c1 [I-538],< 10 µM
16,C[S+]([O-])CN(c1cc(N2CCCOC2)ccn1)[C@H]1CCCN(c2cccc(F)c2)C1 (some centres unmarked) [I-539],10 to 100 µM
17,Fc1cccc(N2CCC[C@H]3[C@@H]2CCN3c2cc(N3CCOCC3)ccn2)c1 [I-540],> 200 µM
18,Fc1cccc(N2C[C@@H](F)C[C@@H](Nc3cc(N4CCOCC4)ccn3)C2)c1 [I-541],100 to 200 µM
19,C=CC(=O)N1CCCC(c2[nH]ncc2C(=O)N[C@@H](CC(N)=O)c2cccc(Cl)c2)C1 (some centres unmarked) [I-542],100 to 200 µM
20,NC(=O)C[C@H](NC(=O)c1cn[nH]c1Cc1ccccc1)c1cccc(Cl)c1 [I-543],< 10 µM
21,COc1c(N[C@@H]2CCCN(c3cccc(F)c3)C2)cncc1N1CCOCC1 [I-544],100 to 200 µM
22,Cc1ncc(N[C@@H]2CCCN(c3cccc(F)c3)C2)cc1N1CCOCC1 [I-545],> 200 µM

row,Compound,Kd
1,Nc1ncc(N[C@@H]2CCCN(c3cccc(F)c3)C2)cc1N1CCOCC1 [I-546],< 10 µM
2,COc1cc(N[C@@H]2CCCN(c3cccc(F)c3)C2)cc(N2CCOCC2)c1 [I-547],> 200 µM
3,NC(=O)C[C@H](NC(=O)c1[nH][nH]c(=O)c1-c1ccccc1F)c1cccc(Cl)c1 [I-548],> 200 µM
4,Cc1cc(F)c(-c2[nH]ncc2C(=O)N[C@@H](CC(N)=O)c2cccc(Cl)c2)c(F)c1 [I-549],< 10 µM
5,NC(=O)C[C@H](NC(=O)C1=C(c2c(F)cccc2F)CCNC1)c1cccc(Cl)c1 [I-550],100 to 200 µM
6,COc1ccc(N2CCC[C@@H](Nc3cncc(N4CCOCC4)c3)C2)cc1 [I-551],> 200 µM
7,C[C@@H]1CCCN(c2ccnc(N[C@@H]3CCCN(c4cccc(F)c4)C3)c2)C1 [I-552],10 to 100 µM
8,Fc1cccc(N2CCC[C@@H](Nc3cc(N4CC5CCC(C5)C4)ccn3)C2)c1 [I-553],< 10 µM
9,Fc1cccc(N2CCC[C@@H](Nc3cc(N4Cc5ccccc5C4)ccn3)C2)c1 [I-554],10 to 100 µM
10,CN(c1ccnc(N[C@@H]2CCCN(c3cccc(F)c3)C2)c1)C1CCCC1 [I-555],10 to 100 µM
11,COCCOCC(=O)c1[nH]cc(C(=O)N[C@@H](CC(N)=O)c2cccc(Cl)c2)c1-c1ccccc1F [I-556],< 10 µM
12,COCCOCCc1[nH]cc(C(=O)N[C@@H](CC(N)=O)c2cccc(Cl)c2)c1-c1ccccc1F [I-557],< 10 µM
13,COc1ncc(N[C@@H]2CCCN(c3cccc(F)c3)C2)cc1N1CCOCC1 [I-558],< 10 µM
14,O=C1C[C@H]([C@@H](NC(=O)c2cn[nH]c2-c2ccccc2F)c2cccc(Cl)c2)CN1 [I-559],100 to 200 µM
15,O=C1C[C@@H]([C@@H](NC(=O)c2cn[nH]c2-c2ccccc2F)c2cccc(Cl)c2)CN1 [I-560],> 200 µM
16,O=C1CC(C(NC(=O)c2cn[nH]c2-c2ccccc2F)c2cccc(Cl)c2)CN1 (centres unmarked) [I-561],> 200 µM
17,NC(=O)CC1(NC(=O)c2cn[nH]c2-c2ccccc2F)CCCc2c(Cl)cccc21 (centres unmarked) [I-562],> 200 µM
18,CC(C)c1cccc(-c2[nH]ncc2C(=O)N[C@@H](CC(N)=O)c2cccc(Cl)c2)c1F [I-563],10 to 100 µM
19,Oc1cc(N[C@@H]2CCCN(c3cccc(F)c3)C2)cc(N2CCOCC2)c1 [I-564],10 to 100 µM
20,NC(=O)C[C@H](NC(=O)c1nc(N)sc1-c1ccccc1F)c1cccc(Cl)c1 [I-565],100 to 200 µM
21,NC(=O)C[C@H](NC(=O)c1c[nH]c(Cc2ccccc2)c1-c1c(F)cccc1F)c1cccc(Cl)c1 [I-566],< 10 µM
22,Oc1ccc(N2CCC[C@@H](Nc3cncc(N4CCOCC4)c3)C2)cc1 [I-567],10 to 100 µM

row,Compound,Kd
1,C[C@@H]1CCCCN1c1ccnc(N[C@@H]2CCCN(c3cccc(F)c3)C2)c1 [I-568],< 10 µM
2,C[C@H]1CCCCN1c1ccnc(N[C@@H]2CCCN(c3cccc(F)c3)C2)c1 [I-569],< 10 µM
3,C[C@H]1CCCN(c2ccnc(N[C@@H]3CCCN(c4cccc(F)c4)C3)c2)C1 [I-570],10 to 100 µM
4,CC1CCN(c2ccnc(N[C@@H]3CCCN(c4cccc(F)c4)C3)c2)CC1 [I-571],10 to 100 µM
5,CCC1CCCN(c2ccnc(N[C@@H]3CCCN(c4cccc(F)c4)C3)c2)C1 (some centres unmarked) [I-572],10 to 100 µM
6,Fc1cccc(N2CCC[C@@H](Nc3cc(N4CCCC5(CC5)C4)ccn3)C2)c1 [I-573],10 to 100 µM
7,Fc1cccc(N2CCC[C@@H](Nc3cc(N4CC5CC5C4)ccn3)C2)c1 (some centres unmarked) [I-574],10 to 100 µM
8,Fc1cccc(N2CCC[C@@H](Nc3cc(N4CC5CCCC5C4)ccn3)C2)c1 (some centres unmarked) [I-575],< 10 µM
9,Fc1cccc(N2CCC[C@@H](Nc3cc(N4CC5CC(C5)C4)ccn3)C2)c1 [I-576],< 10 µM
10,Fc1cccc(N2CCC[C@@H](Nc3cc(N4CC5(CCC5)C4)ccn3)C2)c1 [I-577],10 to 100 µM
11,CN(c1ccnc(N[C@@H]2CCCN(c3cccc(F)c3)C2)c1)C1CCCCC1 [I-578],10 to 100 µM
12,Fc1cccc(N2CCC[C@H]3[C@@H]2CCN3c2cc(N3CCCCC3)ccn2)c1 [I-580],100 to 200 µM
13,NC(=O)C[C@H](NC(=O)c1cn[nH]c1-c1ccccc1F)c1ccccc1Br [I-581],10 to 100 µM
14,NC(=O)C[C@H](NC(=O)c1cn[nH]c1CC1CCCCC1)c1cccc(Cl)c1 [I-582],< 10 µM
15,Cc1ccc(Cl)cc1[C@H](CC(N)=O)NC(=O)c1cn[nH]c1-c1ccccc1F [I-583],< 10 µM
16,Cc1ccc(Cl)cc1[C@@H](CC(N)=O)NC(=O)c1cn[nH]c1-c1ccccc1F [I-584],10 to 100 µM
17,Cc1[nH]cc(C(=O)N[C@@H](CC(N)=O)c2cccc(Cl)c2)c1-c1c(F)cccc1F [I-585],< 10 µM
18,NC(=O)C[C@H](NC(=O)C1=C(c2c(F)cccc2F)CNC1)c1cccc(Cl)c1 [I-586],< 10 µM
19,NC(=O)C[C@H](NC(=O)C1=C(c2c(F)cccc2F)CN(Cc2ccccc2)C1)c1cccc(Cl)c1 [I-587],10 to 100 µM

# Same assay, conditions: DCAF1-3 SPR (KD), 25 °C
row,Compound,Kd
1,"Fc1cccc(N2CCC[C@@H]3[C@H]2CCN3c2cc(N3CCCCC3)ccn2)c1 [I-579, (3aR,7aR)-4-(3-fluorophenyl)-1-(4-(piperidin-1-yl)pyridin-2-yl)octahydro-1H-pyrrolo[3,2-b]pyridine]",< 10 µM
